Assays:
[1] = target: T1, rat B1R (Rattus norvegicus, UniProt P97583); test: Functional investigation on the bradykinin receptor 1 (B1R), FLIPR Ca2+ assay, rB1R cells; type: cell-based; conditions: % inhibition rat B1R at 10 μM; CHO K1 cells transfected with rat B1R; agonist Des-Arg9 bradykinin at EC80; read-out: % Inh. (rat B1R) 10 μM
T1 construct: expressed in transfected cells; host or cells: CHO K1 cells
T1 sequence (P97583 1-337): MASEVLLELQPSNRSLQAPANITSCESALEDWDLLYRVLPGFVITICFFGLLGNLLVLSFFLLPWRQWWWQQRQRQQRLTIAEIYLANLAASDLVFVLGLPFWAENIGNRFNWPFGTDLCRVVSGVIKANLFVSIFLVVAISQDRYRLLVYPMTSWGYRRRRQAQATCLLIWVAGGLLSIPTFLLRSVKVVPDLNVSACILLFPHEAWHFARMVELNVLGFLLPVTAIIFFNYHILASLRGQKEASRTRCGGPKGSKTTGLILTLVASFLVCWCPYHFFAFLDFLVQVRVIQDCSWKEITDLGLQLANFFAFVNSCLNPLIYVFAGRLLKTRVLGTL
Protocol: (§1) The agonistic or antagonistic action of substances can be quantified on the bradykinin receptor 1 (B1R) of the human and rat species with ectopically expressing cell lines (CHO K1 cells) and with the aid of a Ca^2+-sensitive dye (Fluo-4) using a fluorescent imaging plate reader (FLIPR). The indication in % activation is based on the Ca^2+ signal after addition of Lys-Des-Arg^9 bradykinin (0.5 nM) or Des-Arg^9 bradykinin (100 nM). Antagonists lead to a suppression of the Ca^2+ influx following administration of the agonist. The % inhibition in comparison with the maximum achievable inhibition is indicated.
(§2) The agonistic or antagonistic action of substances can be determined on the bradykinin 1 receptor (B1R) of the human and rat species with the following assay. According to this assay, the Ca^2+ inflow through the channel is quantified with the aid of a Ca^2+-sensitive dye (Fluo-4 type, Molecular Probes Europe BV, Leiden, The Netherlands) in a fluorescent imaging plate reader (FLIPR, Molecular Devices, Sunnyvale, USA).
(§3) Chinese hamster ovary cells (CHO K1 cells) which are stably transfected with the human B1R gene (hB1R cells) or the B1R gene of the rat (rB1R cells) are used. For functional investigations, these cells are plated-out onto black 96-well plates with a clear base (BD Biosciences, Heidelberg, Germany or Greiner, Frickenhausen, Germany) in a density of 20,000-35,000 cells/well. Overnight, the cells are incubated at 37° C. and 5% CO2 in culture medium (hB1R cells: Nutrient Mixture Ham's F12, Gibco Invitrogen GmbH, Karlsruhe, Germany or DMEM, Sigma-Aldrich, Taufkirchen, Germany; rB1R cells: D-MEM/F12, Gibco Invitrogen, Karlsruhe, Germany) with 10 vol. % FBS (foetal bovine serum, Gibco Invitrogen GmbH, Karlsruhe, Germany or PAN Biotech GmbH, Aidenbach, Germany). On the following day the cells are loaded with 2.13 μM Fluo-4 (Molecular Probes Europe BV, Leiden, The Netherlands) in HBSS buffer (Hank's buffered saline solution, Gibco Invitrogen GmbH, Karlsruhe, Germany) with 2.5 mM probenecid (Sigma-Aldrich, Taufkirchen, Germany) and 10 mM HEPES (Sigma-Aldrich, Taufkirchen, Germany) for 60 min at 37° C. The plates are the washed twice with HBSS buffer, and HBSS buffer which additionally contains 0.1% BSA (bovine serum albumin; Sigma-Aldrich, Taufkirchen, Germany), 5.6 mM glucose and 0.05% gelatine (Merck KGaA, Darmstadt, Germany) is added. After a further incubation of 20 minutes at room temperature, the plates are inserted into the FLIPR for Ca^2+ measurement. Alternatively they are washed with buffer A (15 mM HEPES, 80 mM NaCl, 5 mM KCl, 1.2 mM CaCl2, 0.7 mM MgSO4, 2 g/l glucose, 2.5 mM probenecid) and loaded with buffer A with added 2.5 μM Fluo-4 and 0.025% Pluronic F127 (Sigma-Aldrich, Taufkirchen, Germany). The cells are then washed twice with buffer A and incubated for 30 minutes with buffer A, which additionally contains 0.05% BSA and 0.05% gelatine, at room temperature and then used for Ca^2+ measurement in the FLIPR.
(§4) The Ca^2+-dependent fluorescence is measured here before and after addition of substances (λex=488 nm, λem=540 nm). The quantification is performed by measuring the highest fluorescence intensity (FC, fluorescence counts) over time.
(§5) The FLIPR protocol comprises two additions of substance. Test substances (10 μM) are first pipetted onto the cells and the Ca^2+ inflow is compared with the control (hB1R: Lys-Des-Arg^9 bradykinin>=50 nM; rB1R: Des-Arg^9 bradykinin 10 μM). The value in % activation based on the Ca^2+ signal after addition of Lys-Des-Arg^9 bradykinin (>=50 nM) or Des-Arg^9 bradykinin (10 μM) is obtained therefrom. After incubation for 10-20 minutes, Lys-Des-Arg^9 bradykinin (hB1R) or Des-Arg^9 bradykinin (rB1R) is applied in the EC80 concentration and the inflow of Ca^2+ is likewise determined. Antagonists lead to a suppression of the Ca^2+ inflow. The % inhibition in comparison with the maximum achievable inhibition is calculated. […]

[2] = target: T2, human B1R (Homo sapiens, UniProt P46663); test: Functional investigation on the bradykinin receptor 1 (B1R), FLIPR Ca2+ assay, hB1R cells; type: cell-based; conditions: % inhibition human B1R at 10 μM; CHO K1 cells transfected with human B1R; agonist Lys-Des-Arg9 bradykinin at EC80; read-out: % Inh. (hum. B1R) 10 μM
T2 construct: expressed in transfected cells; host or cells: CHO K1 cells
T2 sequence (P46663 1-353): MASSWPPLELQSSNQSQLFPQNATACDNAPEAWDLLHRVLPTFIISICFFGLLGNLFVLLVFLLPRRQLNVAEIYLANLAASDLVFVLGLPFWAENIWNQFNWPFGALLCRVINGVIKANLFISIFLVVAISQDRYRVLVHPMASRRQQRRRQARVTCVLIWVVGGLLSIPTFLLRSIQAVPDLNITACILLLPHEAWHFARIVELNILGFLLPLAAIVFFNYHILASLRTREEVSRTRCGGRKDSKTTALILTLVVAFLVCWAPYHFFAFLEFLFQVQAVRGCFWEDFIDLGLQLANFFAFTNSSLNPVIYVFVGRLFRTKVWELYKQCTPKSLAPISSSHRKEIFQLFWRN
Protocol: as §1, §2, §3, §4, §5

| SMILES | inhibition at 10 µM [1] [%] | inhibition at 10 µM [2] [%] |
| --- | --- | --- |
| CN(C)C1(c2cccs2)CCC2(CCN(C(=O)CC(NS(=O)(=O)c3ccc4ccccc4c3)c3ccccc3)CC2)CC1 (stereo not shown) [CC-15, N-[3-(3-Dimethylamino-3-thiophen-2-yl-9-azaspiro[5.5]undecan-9-yl)-3-oxo-1-phenyl-propyl]-naphthalene-2-sulfonic acid amide] | 100 | 69 |
| COc1cc(C)c(S(=O)(=O)N2CCCCC2CCCC(=O)N2CCC3(CC2)CCC(c2cccs2)(N(C)C)CC3)c(C)c1 (stereo not shown) [CC-16, 1-(3-Dimethylamino-3-thiophen-2-yl-9-azaspiro[5.5]undecan-9-yl)-4-[1-[(4-methoxy-2,6-dimethyl-phenyl)sulfonyl]-piperidin-2-yl]-butan-1-one] | 102 | 99 |
| COc1cc(C)c(S(=O)(=O)N2CCCCC2COCC(=O)N2CCC3(CC2)CCC(c2ccccc2)(N2CCCC2)CC3)c(C)c1 (stereo not shown) [Compound 1, 2-((1-(4-Methoxy-2,6-dimethylphenylsulfonyl)piperidin-2-yl)methoxy)-1-(9-phenyl-9-(pyrrolidin-1-yl)-3-azaspiro[5.5]undecan-3-yl)ethanone] | 92 | 100 |
| COc1cc(C)c(S(=O)(=O)N2CCCC[C@H]2COCC(=O)N2CCC3(CC2)CCC(c2ccccc2)(N(C)C)CC3)c(C)c1 [Compound 2, 1-(9-(Dimethylamino)-9-phenyl-3-azaspiro[5.5]undecan-3-yl)-2-(((S)-1-(4-methoxy-2,6-dimethylphenylsulfonyl)piperidin-2-yl)methoxy)ethanone] | 94 | 100 |
| COc1cc(C)c(S(=O)(=O)N(CCOCC(=O)N2CCC3(CC2)CCC(c2ccccc2)(N(C)C)CC3)C2CC2)c(C)c1 [Compound 3, N-Cyclopropyl-N-(2-(2-(9-(dimethylamino)-9-phenyl-3-azaspiro[5.5]undecan-3-yl)-2-oxoethoxy)ethyl)-4-methoxy-2,6-dimethylbenzenesulfonamide] | 102 | 100 |
| COc1cc(C)c(S(=O)(=O)N2c3ccccc3C[C@H]2COCC(=O)N2CCC3(CC2)CCC(c2ccccc2)(N(C)C)CC3)c(C)c1 [Compound 4, 1-(9-(Dimethylamino)-9-phenyl-3-azaspiro[5.5]undecan-3-yl)-2-(((S)-1-(4-methoxy-2,6-dimethylphenylsulfonyl)indolin-2-yl)methoxy)ethanone] | 102 | 98 |
| CN(C)C1(c2ccccc2)CCC2(CCN(C(=O)C[C@@H](NS(=O)(=O)c3ccc4ccccc4c3)c3ccccc3)CC2)CC1 [Compound 5, N-((1R)-3-(9-(Dimethylamino)-9-phenyl-3-azaspiro[5.5]undecan-3-yl)-3-oxo-1-phenylpropyl)naphthalene-2-sulfonamide] | 99 | 77 |
| Cc1cccc(Cl)c1S(=O)(=O)N1CCCC[C@H]1COCC(=O)N1CCC2(CC1)CCC(c1ccccc1)(N(C)C)CC2 [Compound 6, 2-(((S)-1-(2-Chloro-6-methylphenylsulfonyl)piperidin-2-yl)methoxy)-1-(9-(dimethylamino)-9-phenyl-3-azaspiro[5.5]undecan-3-yl)ethanone] | 97 | 100 |
| Cc1cc(S(=O)(=O)N2CCCCC2CCC(=O)N2CCC3(CC2)CCC(c2ccccc2)(N(C)C)CC3)c(C)cc1Cl (stereo not shown) [Compound 7, 3-(1-(4-Chloro-2,5-dimethylphenylsulfonyl)piperidin-2-yl)-1-(9-(dimethylamino)-9-phenyl-3-azaspiro[5.5]undecan-3-yl)propan-1-one] | 97 | 98 |
| COc1cc(C)c(S(=O)(=O)N2CCCCC2CCCC(=O)N2CCC3(CC2)CCC(c2ccccc2)(N(C)C)CC3)c(C)c1 (stereo not shown) [Compound 8, 1-(9-(Dimethylamino)-9-phenyl-3-azaspiro[5.5]undecan-3-yl)-4-(1-(4-methoxy-2,6-dimethylphenylsulfonyl)piperidin-2-yl)butan-1-one] | 98 | 98 |
| CN(C)C1(c2ccccc2)CCC2(CCN(C(=O)CC3CCCCN3S(=O)(=O)c3cccc(C(F)(F)F)c3)CC2)CC1 (stereo not shown) [Compound 9, 1-(9-(Dimethylamino)-9-phenyl-3-azaspiro[5.5]undecan-3-yl)-2-(1-(3-(trifluoromethyl)phenylsulfonyl)piperidin-2-yl)ethan-1-one] | 38 | 92 |
| COc1cc(C)c(S(=O)(=O)N2C=CNC(=O)[C@H]2CC(=O)N2CCC3(CC2)CCC(c2ccccc2)(N(C)C)CC3)c(C)c1 [Compound 10, (3R)-3-(2-(9-(Dimethylamino)-9-phenyl-3-azaspiro[5.5]undecan-3-yl)-2-oxoethyl)-4-(4-methoxy-2,6-dimethylphenylsulfonyl)-3,4-dihydropyrazin-2(1H)-one] | 92 | 100 |
| COc1cc(C)c(S(=O)(=O)N2CCCC[C@H]2COCC(=O)N2CCC3(CC2)CCC(c2cccc(F)c2)(N(C)C)CC3)c(C)c1 [Compound 11, 1-(9-(Dimethylamino)-9-(3-fluorophenyl)-3-azaspiro[5.5]undecan-3-yl)-2-(((S)-1-(4-methoxy-2,6-dimethylphenylsulfonyl)piperidin-2-yl)methoxy)ethanone] | 104 | 100 |
| COc1cc(C)c(S(=O)(=O)N2CCCC[C@H]2COCC(=O)N2CCC3(CC2)CCC(c2ccccc2)(N2CCC2)CC3)c(C)c1 [Compound 12, 1-(9-(Azetidin-1-yl)-9-phenyl-3-azaspiro[5.5]undecan-3-yl)-2-(((S)-1-(4-methoxy-2,6-dimethylphenylsulfonyl)piperidin-2-yl)methoxy)ethanone] | 102 | 100 |

— patent US8278319B2, “Substituted spiroamine compounds” (Gruenenthal GmbH, priority 2008, dated 2012)
